According to PubChem BioAssay (NCI):
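Compound exposure: 48 hours, 5 concentrations, 96-well plates. TGI: concentration producing complete growth inhibition.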

Key:
Assay in all cases: NCI-60 cell line screen, 48 h
KM12 colon = tested on: KM12 colon
HS 578T breast = tested on: HS 578T breast
CCRF-CEM leukemia = tested on: CCRF-CEM leukemia
MDA-N = tested on: MDA-N
UACC-62 melanoma = tested on: UACC-62 melanoma
OVCAR-3 ovarian = tested on: OVCAR-3 ovarian
K-562 leukemia = tested on: K-562 leukemia
NCI-H460 lung = tested on: NCI-H460 lung
HOP-62 NSCLC = tested on: HOP-62 NSCLC
T-47D breast = tested on: T-47D breast
IGROV1 ovarian = tested on: IGROV1 ovarian
MOLT-4 leukemia = tested on: MOLT-4 leukemia
MALME-3M melanoma = tested on: MALME-3M melanoma
BT-549 breast = tested on: BT-549 breast
UO-31 renal = tested on: UO-31 renal
HCT-116 colon = tested on: HCT-116 colon
SK-OV-3 ovarian = tested on: SK-OV-3 ovarian
PC-3 prostate = tested on: PC-3 prostate
NCI-H226 lung = tested on: NCI-H226 lung
SK-MEL-5 melanoma = tested on: SK-MEL-5 melanoma
UACC-257 melanoma = tested on: UACC-257 melanoma
OVCAR-5 ovarian = tested on: OVCAR-5 ovarian
786-0 renal = tested on: 786-0 renal
NCI-H23 lung = tested on: NCI-H23 lung
HCT-15 colon = tested on: HCT-15 colon
MDA-MB-231 breast = tested on: MDA-MB-231 breast
A498 renal = tested on: A498 renal
TK-10 renal = tested on: TK-10 renal
U251 CNS = tested on: U251 CNS
SF-295 CNS = tested on: SF-295 CNS
SW-620 colon = tested on: SW-620 colon
SK-MEL-2 melanoma = tested on: SK-MEL-2 melanoma
DU-145 prostate = tested on: DU-145 prostate
COLO 205 colon = tested on: COLO 205 colon
LOX IMVI melanoma = tested on: LOX IMVI melanoma
M14 melanoma = tested on: M14 melanoma
OVCAR-4 ovarian = tested on: OVCAR-4 ovarian
SNB-19 CNS = tested on: SNB-19 CNS
HOP-92 NSCLC = tested on: HOP-92 NSCLC
CAKI-1 renal = tested on: CAKI-1 renal
HCC-2998 colon = tested on: HCC-2998 colon
RPMI-8226 leukemia = tested on: RPMI-8226 leukemia
ACHN renal = tested on: ACHN renal
SN12C renal = tested on: SN12C renal
A549 NSCLC = tested on: A549 NSCLC
OVCAR-8 ovarian = tested on: OVCAR-8 ovarian
NCI/ADR-RES ovarian = tested on: NCI/ADR-RES ovarian
SK-MEL-28 melanoma = tested on: SK-MEL-28 melanoma
MDA-MB-435 = tested on: MDA-MB-435
RXF 393 renal = tested on: RXF 393 renal
SF-268 CNS = tested on: SF-268 CNS
HT29 colon = tested on: HT29 colon
SNB-75 CNS = tested on: SNB-75 CNS
EKVX NSCLC = tested on: EKVX NSCLC
NCI-H522 lung = tested on: NCI-H522 lung
MCF7 breast = tested on: MCF7 breast
HL-60(TB) leukemia = tested on: HL-60(TB) leukemia
SF-539 CNS = tested on: SF-539 CNS

Work on `O=C(Cn1c2ccc(Br)cc2c2nc3ccccc3nc21)N1CCOCC1` yielded a TGI (KM12 colon) of over 100 µM, a TGI (HS 578T breast) of over 100 µM and a TGI (CCRF-CEM leukemia) of over 100 µM. For the same molecule, the TGI (MDA-N) was over 100 µM, the TGI (UACC-62 melanoma) was over 100 µM and the TGI (OVCAR-3 ovarian) was over 100 µM. For the same molecule, the TGI (K-562 leukemia) was over 100 µM, the TGI (NCI-H460 lung) was over 100 µM and the TGI (HOP-62 NSCLC) was over 100 µM. The TGI (T-47D breast) was over 100 µM, the TGI (IGROV1 ovarian) was over 100 µM and the TGI (MOLT-4 leukemia) was over 100 µM. The TGI (MALME-3M melanoma) was over 100 µM, the TGI (BT-549 breast) was over 100 µM and the TGI (UO-31 renal) was over 100 µM. For the same molecule, the TGI (HCT-116 colon) was over 100 µM, the TGI (SK-OV-3 ovarian) was over 100 µM and the TGI (PC-3 prostate) was over 100 µM. The TGI (NCI-H226 lung) was over 100 µM, the TGI (SK-MEL-5 melanoma) was over 100 µM and the TGI (UACC-257 melanoma) was over 100 µM. For the same molecule, the TGI (OVCAR-5 ovarian) was over 100 µM, the TGI (786-0 renal) was over 100 µM and the TGI (NCI-H23 lung) was over 100 µM. For the same molecule, the TGI (HCT-15 colon) was over 100 µM, the TGI (MDA-MB-231 breast) was over 100 µM and the TGI (A498 renal) was over 100 µM. It also gave a TGI (TK-10 renal) of over 100 µM, a TGI (U251 CNS) of over 100 µM and a TGI (SF-295 CNS) of over 100 µM. It also gave a TGI (SW-620 colon) of over 100 µM, a TGI (SK-MEL-2 melanoma) of over 100 µM and a TGI (DU-145 prostate) of over 100 µM. It also gave a TGI (COLO 205 colon) of over 100 µM, a TGI (LOX IMVI melanoma) of over 100 µM and a TGI (M14 melanoma) of over 100 µM. The TGI (OVCAR-4 ovarian) was over 100 µM, the TGI (SNB-19 CNS) was over 100 µM and the TGI (HOP-92 NSCLC) was 83.3 µM. The TGI (CAKI-1 renal) was over 100 µM, the TGI (HCC-2998 colon) was over 100 µM and the TGI (RPMI-8226 leukemia) was over 100 µM. For the same molecule, the TGI (ACHN renal) was over 100 µM, the TGI (SN12C renal) was over 100 µM and the TGI (A549 NSCLC) was over 100 µM. For the same molecule, the TGI (OVCAR-8 ovarian) was over 100 µM, the TGI (NCI/ADR-RES ovarian) was over 100 µM and the TGI (SK-MEL-28 melanoma) was over 100 µM. For the same molecule, the TGI (MDA-MB-435) was over 100 µM, the TGI (RXF 393 renal) was 98.9 µM and the TGI (SF-268 CNS) was over 100 µM. It also gave a TGI (HT29 colon) of over 100 µM and a TGI (SNB-75 CNS) of over 100 µM.
For `NC1C2C=CC(C2)C1C(=O)O` (stereo not drawn), the TGI (KM12 colon) was over 100 µM, the TGI (HS 578T breast) was over 100 µM and the TGI (CCRF-CEM leukemia) was over 100 µM. For the same molecule, the TGI (MDA-N) was over 100 µM, the TGI (UACC-62 melanoma) was over 100 µM and the TGI (OVCAR-3 ovarian) was over 100 µM. It also gave a TGI (K-562 leukemia) of over 100 µM, a TGI (HOP-62 NSCLC) of over 100 µM and a TGI (T-47D breast) of over 100 µM. For the same molecule, the TGI (IGROV1 ovarian) was over 100 µM, the TGI (EKVX NSCLC) was over 100 µM and the TGI (MOLT-4 leukemia) was over 100 µM. It also gave a TGI (MALME-3M melanoma) of over 100 µM, a TGI (BT-549 breast) of over 100 µM and a TGI (UO-31 renal) of over 100 µM. The TGI (HCT-116 colon) was over 100 µM, the TGI (SK-OV-3 ovarian) was over 100 µM and the TGI (PC-3 prostate) was over 100 µM. The TGI (NCI-H226 lung) was over 100 µM, the TGI (SK-MEL-5 melanoma) was over 100 µM and the TGI (OVCAR-5 ovarian) was over 100 µM. The TGI (786-0 renal) was over 100 µM, the TGI (NCI-H23 lung) was over 100 µM and the TGI (HCT-15 colon) was over 100 µM. The TGI (MDA-MB-231 breast) was over 100 µM, the TGI (A498 renal) was over 100 µM and the TGI (TK-10 renal) was over 100 µM. The TGI (U251 CNS) was over 100 µM, the TGI (SF-295 CNS) was over 100 µM and the TGI (SW-620 colon) was over 100 µM. It also gave a TGI (SK-MEL-2 melanoma) of over 100 µM, a TGI (DU-145 prostate) of over 100 µM and a TGI (COLO 205 colon) of over 100 µM. The TGI (LOX IMVI melanoma) was over 100 µM, the TGI (M14 melanoma) was over 100 µM and the TGI (NCI-H522 lung) was over 100 µM. The TGI (OVCAR-4 ovarian) was over 100 µM, the TGI (SNB-19 CNS) was over 100 µM and the TGI (HOP-92 NSCLC) was over 100 µM. For the same molecule, the TGI (CAKI-1 renal) was over 100 µM, the TGI (MCF7 breast) was over 100 µM and the TGI (RPMI-8226 leukemia) was over 100 µM. It also gave a TGI (ACHN renal) of over 100 µM, a TGI (SN12C renal) of over 100 µM and a TGI (A549 NSCLC) of over 100 µM. It also gave a TGI (HL-60(TB) leukemia) of over 100 µM, a TGI (OVCAR-8 ovarian) of over 100 µM and a TGI (NCI/ADR-RES ovarian) of over 100 µM. The TGI (SK-MEL-28 melanoma) was over 100 µM, the TGI (MDA-MB-435) was over 100 µM and the TGI (RXF 393 renal) was over 100 µM. The TGI (SF-268 CNS) was over 100 µM, the TGI (HT29 colon) was over 100 µM and the TGI (SNB-75 CNS) was over 100 µM. The TGI (SF-539 CNS) was over 100 µM.
